Results taken from US9249115B2, “N,N1 substituted piperazines having combined antiaggregant, anticoagulant and vasodilatory activity, and method for producing same” (Vertex Closed Joint Stock Company, priority 2011, dated 2016).

What was measured:
[1] = system: Ristocetin-induced thrombocyte aggregation; assay: Ristocetin-induced thrombocyte aggregation, donor human thrombocyte enriched plasm; type: cell-based; conditions: ristocetin inductor; for MA (60 c), %: amplitude at 60 s
Protocol: (§1) The study of antiaggregant and anticoagulant properties of N,N′-substituted piperazines on the sample of donor human blood. The blood was collected by donor ulnar vein punction with dry sharp needle without syringe. The administration of drugs that influence on thrombocyte function was cancelled in 7÷10 days before the experiment.
(§2) In graduated plastic centrifuge tube 1 ml of 3.8% basic trisodium citrate solution with pH=7.4 was placed. The ulnar vein was punctuated, the freely effluent blood was collected up to 10 ml mark, the mixture was instantly stirred to prevent air bubbles appearance. The collected and stabilized blood was split in two 5 ml portions in two tubes.
(§3) To obtain thrombocyte enriched plasm the stabilized blood was spinned at 1000 rpm (150 g) for 8 min at room temperature. The repeated spinning of the blood at 3200 rpm (2300 g) for 20 min at 22° C. yielded thrombocyte depleted plasm.
The study of anticoagulant activity was done within 2 h after thrombocyte enriched plasm obtaining. The plasm was normalized to achieve thrombocyte concentration of 200-250×10^9/L by addition of thrombocyte-free plasm. The concentration of thrombocytes was measured on SOLAR AR 2110 analyzer.
Antiaggregant properties of N,N′-substituted piperazines were evaluated by their influence on thrombocyte aggregation in tests with ADP-, collagen- and ristocetin-induced aggregation. To dissolve N,N′-substituted piperazines and to dilute reagents Tris-HCl-buffer with pH=7.4 was used.
As the general characteristic of thrombocyte aggregation activity the maximum amplitude (MA) of aggregation was taken on. That is the peak value of transmittance coefficient of the sample after aggregation agent introduction expressed in % relative to the transmittance of thrombocyte-free plasm. The response was registered on ascending linear segment of aggregation curve for 16 s.
The measurements were done using 4-channel CHRONO-LOG 490-4D analyzer (CHRONO-LOG, USA). The temperature in the cell was 37° C., the spinning speed of magnetic stirrer was 1200 rpm.
In a cuvette 0.5 ml of N,N′-substituted piperazine solution was placed, then 0.4 ml of normalized thrombocyte plasm was added. The mixture was stirred and incubated at 37° C. for 5 min. The cuvette was placed in aggregometer, then 0.05 ml of aggregation inductor solution was added (ADP or collagen or ristocetin). Thrombocyte aggregation was measured for 3 min.
To study ristocetin-induced thrombocyte aggregation CHRONO-PAR RISTOCETIN reagent (CHRONO-LOG, USA) was diluted with buffer solution until ristocetin concentration reached 12 mg/ml. Thrombocyte aggregation amplitude was measured in 60 s after the beginning of the reaction.

[2] = system: Thrombocyte aggregation induced by arachidonic acid; assay: Thrombocyte aggregation induced by arachidonic acid; type: cell-based, human; conditions: 4.5 mmol/L, arachidonic acid 0.2 mmol
Protocol: as §1, §2, §3
The study of antiaggregant properties of N,N′-substituted piperazines with arachidonic acid (CHRONO-LOG, USA) as an inductor: to 450 l of thrombocyte plasm 50 l of N,N′-substituted piperazine solution was added, the mixture was incubated in the cuvette of CHRONO-LOG aggregometer for 15 min at 36° C. The concentration of arachidonic acid in the sample was 0.2 mmol, the concentrations of N,N′-substituted piperazines and comparison substance (aspirin) were 4÷5 mmol/L.
It was shown that N,N′-substituted piperazines have pronounced aspirin-like activity by inhibiting thrombocyte aggregation induced by arachidonic acid (table 5).

[3] = system: ADP-induced thrombocyte aggregation; assay: ADP-induced thrombocyte aggregation, donor human thrombocyte enriched plasm; type: cell-based; conditions: ADP inductor; for MA, %: human thrombocyte plasm
Summary of the method: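 Citrated donor human platelet-rich plasma, normalized to 200-250×10^9/L platelets, was preincubated with compound in Tris-HCl pH 7.4 for 5 min at 37 °C. Aggregation induced by ADP was followed for 3 min by light transmission with stirring at 1200 rpm. Maximum amplitude was taken as % transmittance relative to platelet-free plasma.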

[4] = system: Collagen-induced thrombocyte aggregation; assay: Collagen-induced thrombocyte aggregation, donor human thrombocyte enriched plasm; type: cell-based; conditions: collagen inductor; for MA, %: human thrombocyte plasm
Summary of the method: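 Citrated donor platelet-rich plasma normalized to 200-250×10^9/L was preincubated with compound in Tris-HCl pH 7.4 for 5 min at 37° C. before adding collagen diluted to 10 µg/ml. Aggregation was followed turbidimetrically for 3 min at 1200 rpm stirring, as maximum amplitude (% transmittance relative to platelet-poor plasma).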

[5] = system: thrombocyte depleted plasm coagulation; assay: Activated partial thromboplastin time (APTT), anticoagulant properties; type: biochemical, human; conditions: for APTT: thrombocyte depleted plasm
Protocol: as §1, §2, §3
To study anticoagulant properties of N,N′-substituted piperazines activated partial thromboplastin time (APTT) was measured. That is the ability of N,N′-substituted piperazines to increase thrombocyte depleted plasm coagulation time compared to the ability of control sample. The set of reagents for APTT determination (Russian Scientific Research Institute of Hematology and Transfusiology Ministry of Health of Russian Federation by Technical Regulation 9398-214-01966456-99) and COAG-A-MATE® XM coagulometer (ORGANON TEKNIKA, USA) were used.
The solutions of N,N′-substituted piperazines were mixed with thrombocyte depleted plasm at 1:1 ratio, then 0.1 ml of APTT reagent was added, the mixture was incubated in the cuvette for 5 min at 37° C., then 0.1 ml of 0.277% CaCl2 solution was added. The time of coagulation (in seconds) was measured.

[6] = Homo sapiens, 0.5 mmol/L, read-out: (MA0-MAx): MA0 * 100%
[7] = Homo sapiens, 1.25 mmol/L, read-out: (MA0-MAx): MA0 * 100%
[8] = Homo sapiens, 5.0 mmol/L, read-out: (MA0-MAx): MA0 * 100%

COc1cc(C(=O)N2CCN(C(=N)N)CC2)cc(OC)c1OC.O=C(O)/C=C/C(=O)O [Example 1, 4-(3,4,5-trimethoxybenzoyl)piperazine-1-carboximidamide fumarate hemihydrate]
(MAx-MA0): MA0 * 100% ([1]; 0.5 mmol/L): 1.8%
MA (60 c), % ([1]; 0.5 mmol/L): 70.0 ± 10.5%
(MAx-MA0): MA0 * 100% (Ozagrel: (MA0-MAx): MA0 * 100%) ([1]; 1.25 mmol/L): 12.9%
MA (60 c), % ([1]; 1.25 mmol/L): 62.1 ± 7.7%
(MAx-MA0): MA0 * 100% (Ozagrel: (MA0-MAx): MA0 * 100%) ([1]; 2.5 mmol/L): 22.7%
MA (60 c), % ([1]; 2.5 mmol/L): 55.1 ± 11.1%
(MAx-MA0): MA0 * 100% (Ozagrel: (MA0-MAx): MA0 * 100%) ([1]; 5.0 mmol/L): 53.3%
MA (60 c), % ([1]; 5.0 mmol/L): 33.3 ± 4.5%
MA [2]: 33
Max. rate for 16 sec [2]: 20
inhibition at 4500 µM ([2]; Homo sapiens): 60%
MA, % ([3]; 0.2 mmol/L): 6.4 ± 1.1%
MA, % ([3]; 0.5 mmol/L): 5.0 ± 1.1%
MA, % ([3]; 1.25 mmol/L): 4.1 ± 0.7%
MA, % ([3]; 2.50 mmol/L): 3.0 ± 12.1%
MA, % ([3]; 5.0 mmol/L): 1.3 ± 0.5%
inhibition at 200 µM ([3]; Homo sapiens, 0.2 mmol/L, read-out: (MA0-MAx): MA0 * 100%): 53.3%
inhibition at 500 µM [3, 6]: 63.5%
inhibition at 1250 µM [3, 7]: 70.1%
inhibition at 2500 µM ([3]; Homo sapiens, 2.50 mmol/L, read-out: (MA0-MAx): MA0 * 100%): 78.1%
inhibition at 5000 µM [3, 8]: 90.5%
MA, % ([4]; 0.5 mmol/L): 70.0 ± 5.1%
MA, % ([4]; 1.25 mmol/L): 60.7 ± 7.7%
MA, % ([4]; 2.5 mmol/L): 18.4 ± 3.1%
MA, % ([4]; 5.0 mmol/L): 2.1 ± 0.4%
inhibition at 500 µM [4, 6]: 5.4%
inhibition at 1250 µM [4, 7]: 18.8%
inhibition at 2500 µM ([4]; Homo sapiens, 2.5 mmol/L, read-out: (MA0-MAx): MA0 * 100%): 75.1%
inhibition at 5000 µM [4, 8]: 97.2%
(APTTx-APTT0): APTT0 * 100% ([5]; 1.7 mmol/L): 12.2%
APTT ([5]; 1.7 mmol/L): 50.4 ± 7.0 s
(APTTx-APTT0): APTT0 * 100% ([5]; 2.5 mmol/L): 40.1%
APTT ([5]; 2.5 mmol/L): 63.3 ± 5.7 s
(APTTx-APTT0): APTT0 * 100% ([5]; 4.1 mmol/L): 56.8%
APTT ([5]; 4.1 mmol/L): 70.4 ± 5.2 s
(APTTx-APTT0): APTT0 * 100% ([5]; 8.3 mmol/L): 209.8%
APTT ([5]; 8.3 mmol/L): 139.1 ± 9.5 s
